In patent US20240277658A1, “NLRP3 ACTIVATORS FOR USE IN THE TREATMENT OF INFECTIOUS DISEASES OR CANCER BY ACTIVATING NLRP3 INFLAMMASOME” (ALBERT-LUDWIGS-UNIVERSITÄT FREIBURG, priority 2020, published 2024):
“And” between values parts separate entries of the source, which are not always exact repeats. Equal entries are not always repeated. Where two headings read alike, the source gives them in different places.

What was measured:
NLRP3 inflammasome = molecular target: T1, NLRP3 inflammasome (Mus musculus, UniProt Q8R4B8); assay: IL-1β release from LPS-primed BMDCs (ELISA) as readout of NLRP3 inflammasome activation; format: cell-based
T1 construct: endogenous in cells; host or cells: primary mouse bone marrow-derived dendritic cells (BMDCs), LPS-primed
Procedure: (§1) This was tested in cell culture in several different in vitro assays classically used to investigate inflammasome activation. These include measuring inflammasome-dependent lytic cell death (pyroptosis) by detecting release of the cytosolic enzyme lactate dehydrogenase (LDH) using a commercial colorimetric assay and release of proinflammatory cytokines like IL-1β by enzyme-linked immunosorbent assay (ELISA), analyzing cleavage and activation of caspase-1 and IL-1β by immunoblotting and immunofluorescence imaging of ASC speck formation. Lytic cell death was determined via LDH release. Assay results for compounds are illustrated in the Tables below, wherein the concentration of the compounds tested had been 50 μM or as indicated in the table, and the concentration of the known activators has been tested with 5 μM of nigericin, 100 μM of each R837 and CL097. For classification of the activity of a given molecule, release of IL-1β was quantified as % of IL-1% of a respective control activator used for the experiment (highlighted in tables with bold letters). The compounds listes in Table 1 were classified into 4 groups depending on their ability to induce the NLRP3 inflammasome activation, assessed by % IL-1β release as compared to the positive control.
(§2) Mouse bone marrow-derived dendritic cells (BMDCs) were isolated from femurs and tibias previously described (Gross, Olaf, 2012, “Measuring the inflammasome”, Methods in molecular biology, Clifton, N.J., 844, pp. 199-222.). In brief, tibias and femurs were carefully removed and put to sterile 70% ethanol for 1 minute. Using a 22-G needle attached to a 20 ml-syringe filled with sterile flushing medium, the bone marrow was pressed through the mesh of a […] cell strainer. The cells were spun down by centrifugation at 400×g, 4° C. for 5 minutes and red blood cells lysed by resuspension and incubation for 5 minutes at room temperature in RBC lysis buffer. 9 ml of flushing medium were added and cells were again spun down by centrifugation at 400×g, 4° C. for 5 minutes. Cells were then resuspended in BMDC medium (RPMI, 10% fetal bovine serum, 1% penicillin-streptomycin100 U/ml, 20 ng/ml recombinant murine GM-CSF), counted and plated at a density of 0.5×10^6 cells ml^−1 in 10 ml medium and incubated at 37° C., 5% CO2 in a humidified incubator. After 2 days, 10 ml of fresh medium were added to the cells and after 4 days, the medium was fully exchanged to 20 ml of fresh medium. The cells were allowed to differentiate for 6 to 8 days before usage.
(§3) For canonical inflammasome activation BMDCs after 7-9 days of differentiation were harvested and counted with a Neubauer Chamber (Hecht Assistant) and the concentration was set to 1 Mio cells ml^−1. 100 μl cell suspension per well were seeded in 96-well plates. The cells were primed with 50 ng ml^−1 E. coli K12 ultra-pure LPS for 3 hours and subsequently treated with canonical inflammasome activators or experimental compounds for 3 hours if not indicated differently (incubation time FIG. 4D, 5, 7, 8, 11, 13-18: 3 h, FIG. 12: 4 h). Concentrations of the stimuli were as follows if not indicated differently: 5 μM nigericin, 100 μM imiquimod (also known as R837), 100 μM CL097, 100 μM R848, […] poly(dA:dT), 300 μg ml^−1 MSU. If an inhibitor was used before stimuli treatment, the inhibitor was added after 2.5 hours of priming and it was incubated for 30 minutes before inflammasome activation. Inhibitors were used as follows: 3 μM MCC950, 45 mM KCl, 30 μM ebselen (2-Phenyl-1,2-benzoselenazol-3-one), 5 μM cytochalasin D (see FIGS. 8, 11, 12 and 17).
(§4) All inflammasome stimulations were performed in three technical replicates for each condition. […]

BMDCs = assay: LDH release (lytic cell death, pyroptosis) from LPS-primed BMDCs; format: cell-based, mouse; settings: for Average (% positive control): LDH release; for cytotoxicity at 50 µM / cytotoxicity at 18.75 µM / cytotoxicity at 37.5 µM / cytotoxicity at 75 µM: Mus musculus, BMDC; for cytotoxicity at 50 µM: LPS-primed BMDCs
Procedure: as §1, §2, §3, §4

[1] = IL-1β release, compound 50 μM, positive control nigericin 5 μM
[2] = compound 50 μM, LPS-primed BMDCs
[3] = single replicates, compound 50 μM, LPS-primed BMDCs
[4] = compound 50 μM, positive control nigericin 5 μM
[5] = compound 50 μM, read-out: Average LDH release (% of max.)
[6] = single replicates, compound 50 μM, read-out: LDH release (% of max.)

T1 sequence (Q8R4B8 whole entry): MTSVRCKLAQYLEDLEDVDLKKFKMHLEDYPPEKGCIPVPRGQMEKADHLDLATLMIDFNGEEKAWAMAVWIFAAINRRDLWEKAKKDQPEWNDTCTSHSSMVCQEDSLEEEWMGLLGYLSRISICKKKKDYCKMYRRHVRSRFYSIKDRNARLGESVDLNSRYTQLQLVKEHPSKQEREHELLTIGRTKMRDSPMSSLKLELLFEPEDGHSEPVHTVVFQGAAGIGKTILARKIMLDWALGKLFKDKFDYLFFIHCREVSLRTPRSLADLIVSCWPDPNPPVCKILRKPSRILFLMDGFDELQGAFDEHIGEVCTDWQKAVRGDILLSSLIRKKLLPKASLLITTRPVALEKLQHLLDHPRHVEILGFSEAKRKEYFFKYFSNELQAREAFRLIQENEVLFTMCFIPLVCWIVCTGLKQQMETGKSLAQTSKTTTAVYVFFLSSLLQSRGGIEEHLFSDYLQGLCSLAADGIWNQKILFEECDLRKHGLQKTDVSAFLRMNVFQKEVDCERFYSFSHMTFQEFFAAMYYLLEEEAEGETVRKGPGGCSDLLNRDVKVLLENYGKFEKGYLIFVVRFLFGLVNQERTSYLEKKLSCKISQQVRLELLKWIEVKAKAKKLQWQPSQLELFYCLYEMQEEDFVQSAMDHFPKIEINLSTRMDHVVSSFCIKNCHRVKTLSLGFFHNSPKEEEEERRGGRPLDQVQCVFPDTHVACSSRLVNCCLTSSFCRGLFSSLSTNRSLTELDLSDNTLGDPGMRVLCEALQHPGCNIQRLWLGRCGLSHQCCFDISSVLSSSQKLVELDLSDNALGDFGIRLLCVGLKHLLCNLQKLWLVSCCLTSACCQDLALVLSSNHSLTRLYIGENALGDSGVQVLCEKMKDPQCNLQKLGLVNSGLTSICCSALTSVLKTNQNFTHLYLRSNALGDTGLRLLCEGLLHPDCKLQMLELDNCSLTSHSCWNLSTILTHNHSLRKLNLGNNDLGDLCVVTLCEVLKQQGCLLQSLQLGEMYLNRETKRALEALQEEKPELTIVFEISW

SMILES	Average (% positive control) (NLRP3 inflammasome; [1])	Average IL-1β (NLRP3 inflammasome; [2])	IL-1β (NLRP3 inflammasome; [3])	Average (% positive control) (BMDCs; [4])	cytotoxicity at 50 µM (BMDCs; [5])	cytotoxicity at 50 µM (BMDCs; [6])	also measured
Cc1cccc(-c2noc(CN3C(=O)CN(c4ccccc4)C3=O)n2)c1 [L01.069, 3-{[3-(3-methylphenyl)-1,2,4-oxadiazol-5-yl]-methyl}-1-phenylimid-azolidine-2,4-dione]	1.941 % positive control	0.139 ng/mL	0.131 ng/mL and 0.138 ng/mL and 0.149 ng/mL	12.713 % positive control	9.3%	9.2%	–
O=C(Nc1ccccc1Cl)Nc1ccc([N+](=O)[O-])cc1Cl [A.C2, 3-(2-chloro-4-nitrophen-yl)-1-(2-chlorophenyl)-urea]	–	–	–	–	–	–	Average IL-1β (NLRP3 inflammasome; 18.75 μM): 0.118 ng/mL; IL-1β (NLRP3 inflammasome; 18.75 μM, individual replicate values): 0.128 ng/mL and 0.116 ng/mL and 0.111 ng/mL; Average IL-1β (NLRP3 inflammasome; 37.5 μM): 0.361 ng/mL; IL-1β (NLRP3 inflammasome; 37.5 μM, individual replicate values): 0.377 ng/ml and 0.353 ng/ml (2×); Average IL-1β (NLRP3 inflammasome; 75 μM): 0.525 ng/mL; IL-1β (NLRP3 inflammasome; 75 μM, individual replicate values): 0.459 ng/mL and 0.546 ng/mL and 0.571 ng/mL; Average (% positive control) (NLRP3 inflammasome; IL-1β, 18.75 μM, positive control EN22 18.75 μM): 1.870 % positive control; Average (% positive control) (NLRP3 inflammasome; IL-1β, 37.5 μM, positive control EN22 18.75 μM): 5.712 % positive control; Average (% positive control) (NLRP3 inflammasome; IL-1β, 75 μM, positive control EN22 18.75 μM): 8.308 % positive control; cytotoxicity at 18.75 µM (BMDCs; section 1.4, 18.75 μM, read-out: Average LDH release (% of max.)): 17.8%; cytotoxicity at 37.5 µM (BMDCs; section 1.4, 37.5 μM, read-out: Average LDH release (% of max.)): 45.7%; cytotoxicity at 75 µM (BMDCs; section 1.4, 75 μM, read-out: Average LDH release (% of max.)): 75.8%; cytotoxicity at 18.75 µM (BMDCs; section 1.4, single replicates, 18.75 μM, read-out: LDH release (% of max.)): 18.4%; cytotoxicity at 37.5 µM (BMDCs; section 1.4, single replicates, 37.5 μM, read-out: LDH release (% of max.)): 46.6%; cytotoxicity at 75 µM (BMDCs; section 1.4, single replicates, 75 μM, read-out: LDH release (% of max.)): 77.1%; Average (% positive control) (BMDCs; section 1.4, 18.75 μM, positive control EN22 18.75 μM): 24.912 % positive control; Average (% positive control) (BMDCs; section 1.4, 37.5 μM, positive control EN22 18.75 μM): 64.016 % positive control; Average (% positive control) (BMDCs; section 1.4, 75 μM, positive control EN22 18.75 μM): 106.244 % positive control
O=C1CN(c2ccccc2)C(=O)N1Cc1nc(-c2ccco2)no1 [L01.033, 3-{[3-(furan-2-yl)-1,2,4-oxadiazol-5-yl]methyl}-1-phenylimidazolidine-2,4-dione]	2.698 % positive control	0.193 ng/mL	0.197 ng/ml (2×) and 0.186 ng/ml	11.108 % positive control	8.13%	8%	–
CCc1ccc(Cl)c(CC)c1NC(=O)NC(c1nc(-c2cccnc2)no1)C(C)C (stereo not drawn) [L01.113, 1-(3-chloro-2,6-diethyl-phenyl)-3-{2-methyl-1-[3-(pyridin-3-yl)-1,2,4-oxadiazol-5-yl]propyl}-urea]	15.691 % positive control	1.125 ng/mL	1.145 ng/mL and 1.165 ng/mL and 1.064 ng/mL	49.256 % positive control	36%	37.4%	–
Cc1ccc(N2C(=O)N(Cc3nc(-c4ccc(F)cc4)no3)C(=O)C2C)cc1 (stereo not drawn) [L01.130, 3-{[3-(4-fluorophenyl)-1,2,4-oxadiazol-5-yl]-methyl}-5-methyl-1-(4-methylphenyl)imidazol-idine-2,4-dione]	4.350 % positive control	0.312 ng/mL	0.404 ng/mL and 0.317 ng/mL and 0.215 ng/mL	11.646 % positive control	8.52%	9.39%	–
O=C(NCc1nc(C2CC2)no1)Nc1cccc(F)c1 [L01.081, 3-[(3-cyclopropyl-1,2,4-oxadiazol-5-yl)methyl]-1-(3-fluorophenyl)urea]	1.093 % positive control	0.078 ng/mL	0.075 ng/mL and 0.072 ng/mL and 0.088 ng/mL	8.656 % positive control	6.33%	6.87%	–
O=C(Nc1cccc(S(=O)(=O)C2CCCC2)c1)N1CCCCC1c1nc(-c2ccccc2)no1 (stereo not drawn) [L01.099, N-[3-(cyclopentane-sulfonyl)phenyl]-2-(3-phenyl-1,2,4-oxadiazol-5-yl)piperidine-1-carboxamide]	0.932 % positive control	0.067 ng/mL	0.074 ng/mL and 0.067 ng/mL and 0.059 ng/mL	13.410 % positive control	9.81%	10.6%	–

Continued, in another order:

Average (% positive control) (NLRP3 inflammasome; [1])	Average IL-1β (NLRP3 inflammasome; [2])	SMILES	IL-1β (NLRP3 inflammasome; [3])	Average (% positive control) (BMDCs; [4])	cytotoxicity at 50 µM (BMDCs; [5])	cytotoxicity at 50 µM (BMDCs; [6])	also measured
1.269 % positive control	0.091 ng/mL	CC(=O)Nc1ccc(NC(=O)Nc2ccccc2)cc1 [L01.109, N-{4-[(phenylcarbamo-yl)amino]phenyl}acet-amide]	0.120 ng/mL and 0.083 ng/mL and 0.070 ng/mL	10.912 % positive control	7.98%	8.46%	–
2.301 % positive control	0.165 ng/mL	CC(C)=CC(=O)Nc1cccc(NC(=O)Nc2ccccc2)c1 [L01.003, 3-methyl-N-{3-[(phen-ylcarbamoyl)amino]-phenyl}but-2-enamide]	0.167 ng/mL and 0.153 ng/mL and 0.175 ng/mL	10.676 % positive control	7.81%	6.28%	–
6.360 % positive control	0.456 ng/mL	O=C(Nc1ccccc1)Nc1ccc(OC(F)(F)F)cc1 [L01.061, 1-phenyl-3-[4-(trifluoro-methoxy)phenyl]urea]	0.508 ng/mL and 0.439 ng/mL and 0.420 ng/mL	19.349 % positive control	14.2%	15.9%	–
1.765 % positive control	0.126 ng/mL	CC(C)C(NC(=O)Nc1ccc(Cl)cc1)c1nc(-c2ccccc2)no1 (stereo not drawn) [L01.097, 1-(4-chlorophenyl)-3-[2-methyl-1-(3-phenyl-1,2,4-oxadiazol-5-yl)-propyl]urea]	0.121 ng/mL and 0.143 ng/mL and 0.116 ng/mL	51.271 % positive control	37.5%	39.5%	–
13.268 % positive control	0.951 ng/mL	Cc1ccc(NC(=O)Nc2ccccc2)cc1F [L01.124, 3-(3-fluoro-4-methyl-phenyl)-1-phenylurea]	0.928 ng/mL and 0.902 ng/mL and 1.024 ng/mL	19.235 % positive control	14.1%	14.1%	–
16.230 % positive control	1.163 ng/mL	O=C(Nc1ccccc1)Nc1ccc(NC(=O)C2CCCC2)cc1 [L01.104, N-{4-[(phenylcarbamo-yl)amino]phenyl}cyclo-pentanecarboxamide]	1.103 ng/mL and 1.142 ng/mL and 1.246 ng/mL	24.873 % positive control	18.2%	17.2%	–
